According to patent US9371305B2, “Deuterated benzopyran compounds and application thereof” (Guangzhou Institutes of Biomedicine And Health, Chinese …, priority 2012, dated 2016):
Like-named read-outs stand apart in the source and are kept apart here.

Key:
ovine COX-1 = target: T1, ovine COX-1 (Ovis aries, UniProt P05979); assay: COX-1 enzyme inhibition (ADHP fluorescence); type: biochemical
T1 sequence (P05979 25-600): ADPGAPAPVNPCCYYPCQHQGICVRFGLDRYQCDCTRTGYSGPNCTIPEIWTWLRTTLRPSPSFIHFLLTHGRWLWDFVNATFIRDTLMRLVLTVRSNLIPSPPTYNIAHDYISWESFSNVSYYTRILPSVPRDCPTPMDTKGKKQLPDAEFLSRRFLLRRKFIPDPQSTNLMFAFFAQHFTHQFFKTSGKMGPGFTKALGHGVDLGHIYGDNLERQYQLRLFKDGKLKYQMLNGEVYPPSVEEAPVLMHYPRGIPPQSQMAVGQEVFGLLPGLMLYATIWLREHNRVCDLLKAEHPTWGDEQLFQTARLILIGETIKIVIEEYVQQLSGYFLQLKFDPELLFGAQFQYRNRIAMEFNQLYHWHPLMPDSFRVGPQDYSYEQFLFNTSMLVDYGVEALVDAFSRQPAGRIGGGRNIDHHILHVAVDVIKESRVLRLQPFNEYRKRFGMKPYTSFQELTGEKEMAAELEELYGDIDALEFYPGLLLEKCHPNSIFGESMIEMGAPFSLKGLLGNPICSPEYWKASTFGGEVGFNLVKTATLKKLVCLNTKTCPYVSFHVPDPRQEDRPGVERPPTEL
Procedure: (§1) Deuterated benzopyran compounds of different concentrations were uniformly mixed with ovine COX-1 and human recombinant COX-2 for incubation for 15 min, respectively, and then the system was added with Heme and ADHP for incubation for another 2 min and finally added with substrate arachidonic acid. The light emission intensity of the reaction product at 595 nm was immediately detected by a microplate reader under exciting light at 530 nm. […] In the whole blood assay, venous blood of healthy donors was collected with a non-anticoagulation tube and a heparin tube, deuterated benzopyran compounds of different concentrations (1×10^−8 to 1×10^−4) were mixed with the blood in the non-anticoagulation tube, the supernatant was collected after the blood was coagulated and then measured by ELISA in terms of the yield of TXB2; and deuterated benzopyran compounds of different concentrations (1×10^−8 to 1×10^−4) were mixed with the blood in the heparin tube, the mixture was added with lipopolysaccharide until the final concentration was 100 μg/mL, mixed uniformly and then kept stand overnight at 37° C., the supernatant was collected by centrifugation and then measured by ELISA in terms of the yield of PGE2. […]

[1] = Test on pharmacokinetics and bioavailability of rats; type: in vivo, SD rats; conditions: for Vd / BA / AUC / Cmax / Tmax / half-life / t½: male SD rats; for BA: oral, calculated according AUC data; for AUC / Cmax / Tmax / half-life / t½: oral administration; for half-life: read-out: t½ (converted)
Procedure: The blood samples employ acetonitrile to precipitate protein, 16000 rpm*30 min, and the supernatant is used for LC/MS analysis. Data is performed with parameter fitting by DAS2.0, and the bioavailability of oral administration of compounds is calculated according AUC data.

[2] = tested on: generation of TXB2 in the whole blood; assay: whole blood assay, yield of TXB2 in coagulated blood (ELISA); type: cell-based; conditions: Homo sapiens, read-out: inhibition IC50 onto generation of TXB2 in the whole blood test
Procedure: as §1

[3] = tested on: generation of PGE2 in the whole blood; assay: whole blood assay, lipopolysaccharide-induced yield of PGE2 in heparin blood (ELISA); type: cell-based, human; conditions: for IC50: Homo sapiens, read-out: inhibition IC50 onto generation of PGE2 in the whole blood test
Procedure: (§2) Deuterated benzopyran compounds of different concentrations were uniformly mixed with ovine COX-1 and human recombinant COX-2 for incubation for 15 min, respectively, and then the system was added with Heme and ADHP for incubation for another 2 min and finally added with substrate arachidonic acid. The light emission intensity of the reaction product at 595 nm was immediately detected by a microplate reader under exciting light at 530 nm. […] In the whole blood assay, venous blood of healthy donors was collected with a non-anticoagulation tube and a heparin tube, deuterated benzopyran compounds of different concentrations (1×10^−8 to 1×10^−4) were mixed with the blood in the non-anticoagulation tube, the supernatant was collected after the blood was coagulated and then measured by ELISA in terms of the yield of TXB2; and deuterated benzopyran compounds of different concentrations (1×10^−8 to 1×10^−4) were mixed with the blood in the heparin tube, the mixture was added with lipopolysaccharide until the final concentration was 100 μg/mL, mixed uniformly and then kept stand overnight at 37° C., the supernatant was collected by centrifugation and then measured by ELISA in terms of the yield of PGE2.

human recombinant COX-2 = target: T2, human recombinant COX-2 (Homo sapiens, UniProt P35354); assay: COX-2 enzyme inhibition (ADHP fluorescence); type: biochemical; conditions: for IC50: human recombinant COX-2, 15 min incubation
T2 sequence (P35354 18-604): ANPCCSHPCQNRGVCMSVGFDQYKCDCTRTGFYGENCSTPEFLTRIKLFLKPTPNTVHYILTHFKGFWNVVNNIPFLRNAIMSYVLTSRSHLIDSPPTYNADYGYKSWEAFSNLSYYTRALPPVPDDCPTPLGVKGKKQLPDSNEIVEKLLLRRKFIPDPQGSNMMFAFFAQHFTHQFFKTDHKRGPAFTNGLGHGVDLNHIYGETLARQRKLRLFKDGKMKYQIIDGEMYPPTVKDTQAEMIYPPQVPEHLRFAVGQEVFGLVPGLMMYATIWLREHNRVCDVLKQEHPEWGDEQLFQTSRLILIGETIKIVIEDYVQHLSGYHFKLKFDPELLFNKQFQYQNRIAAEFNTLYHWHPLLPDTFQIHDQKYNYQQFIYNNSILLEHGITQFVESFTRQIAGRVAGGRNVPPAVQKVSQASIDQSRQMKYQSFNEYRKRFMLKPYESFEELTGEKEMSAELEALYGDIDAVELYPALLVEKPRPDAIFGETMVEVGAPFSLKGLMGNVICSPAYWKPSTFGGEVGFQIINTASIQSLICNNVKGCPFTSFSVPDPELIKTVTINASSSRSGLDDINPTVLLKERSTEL
Procedure: as §2

[4] = ovine COX-1, 15 min incubation, read-out: Inhibition IC50 COX-1
[5] = rat, plasma, single dose 25 mg/kg
[6] = rat, plasma, single dose 25 mg/kg, read-out: Cmax
[7] = rat, plasma, single dose 25 mg/kg, read-out: Tmax
[8] = blood of healthy donors, non-anticoagulation tube
[9] = blood of healthy donors, heparin tube, lipopolysaccharide 100 μg/mL, overnight at 37° C.
[10] = rat, plasma, single dose 10 mg/kg
[11] = rat, plasma, single dose 2.5 mg/kg
[12] = rat, plasma, single dose 2.5 mg/kg, read-out: Cmax
[13] = rat, plasma, single dose 2.5 mg/kg, read-out: Tmax

Compound	IC50 (ovine COX-1; [4]) [µM]	IC50 [2] [µM]	IC50 [3] [µM]	IC50 [2, 8] [µM]	IC50 [3, 9] [µM]	Vd ([1]; single dose 10 mg/kg) [L/kg]	Cmax ([1]; single dose 10 mg/kg) [ng/mL]	Tmax ([1]; single dose 10 mg/kg) [h]	t½ ([1]; single dose 10 mg/kg) [h]	BA ([1]; single dose 10 mg/kg) [%]	AUC [1, 10] [µg·h/mL]	BA ([1]; single dose 2.5 mg/kg) [%]	AUC [1, 11] [µg·h/mL]	further results
[2H]C([2H])([2H])c1ccc2c(c1)C=C(C(=O)O)C(C(F)(F)F)O2 (centres unmarked) [GIBH-1004, 6-(methyl-D3)-2-(trifluoromethyl)-2H-chromence-3-carboxylic acid]	> 100	> 100	67.5											Vd ([1]; single dose 25 mg/kg): 0.58 L/kg; BA ([1]; single dose 25 mg/kg): 46.1%; AUC [1, 5]: 181 µg·h/mL; Cmax [1, 6]: 34200 ng/mL; Tmax [1, 7]: 0.563 h; half-life [1, 5]: 2.88 h
[2H]C([2H])([2H])C([2H])([2H])c1cc(OC(F)(F)F)cc2c1OC(C(F)(F)F)C(C(=O)O)=C2 (centres unmarked) [GIBH-1006, 8-(ethyl-D5)-6-(trifluoromethoxy)-2-(trifluoromethyl)-2H-chromene-3-carboxylic acid]	> 100			20.5	79.5									Vd ([1]; single dose 25 mg/kg): 0.68 L/kg; BA ([1]; single dose 25 mg/kg): 78.6%; AUC value compared among the compounds (in words) ([1]; rat PK, doses differ between compounds): highest; AUC [1, 5]: 511 µg·h/mL; Cmax [1, 6]: 29500 ng/mL; Tmax [1, 7]: 1.62 h; half-life [1, 5]: 9.54 h
[2H]C([2H])([2H])c1cc2c(c(C([2H])([2H])[2H])c1Cl)C=C(C(=O)O)C(C(F)(F)F)O2 (centres unmarked) [GIBH-1008, 6-chloro-5,7-(dimethyl-D6)-2-(trifluoromethyl)-2H-chromene-3-carboxylic acid]	> 100			65.1	78.5	0.26	20900	1.167	2.1	92.8	118			IC50 (ovine COX-1; read-out: IC50 value of COX-1): > 100 µM
[2H]C([2H])([2H])c1cc2c(c(C([2H])([2H])[2H])c1Br)C=C(C(=O)O)C(C(F)(F)F)O2 (centres unmarked) [GIBH-1010, 6-bromo-5,7-(dimethyl-D6)-2-(trifluoromethyl)-2H-chromene-3-carboxylic acid]	> 100			38.9	> 100	0.57	21399	0.5	3.35	111.8	84.8			IC50 (human recombinant COX-2): 0.0671 µM
[2H]C([2H])([2H])c1cc(Cl)cc2c1OC(C(F)(F)F)C(C(=O)O)=C2 (centres unmarked) [GIBH-1012, 6-chloro-8-(methyl-D3)-2-(trifluoromethyl)-2H-chromene-3-carboxylic acid]	> 100	> 100	> 100									110.7	38.9	Cmax ([1]; single dose 2.5 mg/kg): 8945 ng/mL; Tmax ([1]; single dose 2.5 mg/kg): 0.5 h; t½ ([1]; single dose 2.5 mg/kg): 3.37 h
[2H]C([2H])([2H])c1cc(Br)cc2c1OC(C(F)(F)F)C(C(=O)O)=C2 (centres unmarked) [GIBH-1014, 6-bromo-8-(methyl-D3)-2-(trifluoromethyl)-2H-chromene-3-carboxylic acid]	31.8	> 100	45.2			0.53	35300	0.417	5.2	107.4	143			ratio of the selectivity to COX-2 to the selectivity to COX-1 (human recombinant COX-2; from enzyme IC50 values COX-1/COX-2): 862; IC50 (human recombinant COX-2): 0.0368 µM; selectivity to the inhibition of COX-2 enzyme of blood cells ([3]; human whole blood COX enzyme activity test): better selectivity
[2H]C([2H])([2H])c1cc2c(c(C([2H])([2H])[2H])c1)OC(C(F)(F)F)C(C(=O)O)=C2 (centres unmarked) [GIBH-1016, 6,8-(dimethyl-D6)-2-(trifluoromethyl)-2H-chromene-3-carboxylic acid]		> 100	> 100									65.1	4.33	IC50 (ovine COX-1): > 100 µM; Vd ([1]; single dose 2.5 mg/kg): 0.94 L/kg; Cmax [1, 12]: 4400 ng/mL; Tmax [1, 13]: 0.187 h; half-life [1, 11]: 1.04 h
[2H]C([2H])([2H])c1cc(Cl)c2c(c1)C=C(C(=O)O)C(C(F)(F)F)O2 (centres unmarked) [GIBH-1018, 8-chloro-6-(methyl-D3)-2-(trifluoromethyl)-2H-chromene-3-carboxylic acid]	> 100	> 100	78.9									90.6	28.3	Vd ([1]; single dose 2.5 mg/kg): 0.31 L/kg; Cmax [1, 12]: 11800 ng/mL; Tmax [1, 13]: 0.271 h; half-life [1, 11]: 2.43 h
